Experimental data: article PMC8909834, “An Orally Bioavailable and Highly Efficacious Inhibitor of CDK9/FLT3 for the Treatment of Acute Myeloid Leukemia” (Cancers, 2022)

Assays:
Test in all cases: Kinase Hotspot radiolabel assay
Assay type in all cases: biochemical
Details in all cases: read-out: % Residual Activity
ITK = target: T1, ITK (Homo sapiens, UniProt Q08881)
T1 construct: purchased Reaction Biology Corporation (Kinase HotSpot)
Procedure: (§1) Kinase assay. The ADP Glo^TM kinase assay (Promega, Madison, WI, USA) was used to assess the inhibition by CDDD11-8 of CDKs 1, 2, 4, 6, 7, and 9, as well as the mutant isoforms of FLT3. The assays were performed in accord with the manufacturer’s protocol (Promega) as described previously. Briefly, serial three-fold dilutions of CDDD11-8 were prepared in 100% DMSO from a 2 mM stock solution, followed by 1:40 dilution into Milli-Q water. Subsequently, 1 µL of each sample was incubated with 4 µL of kinase mixture containing a particular CDK enzyme and its substrate, standard kinase buffer [3 mM MgCl2, 50 mM HEPES-NaOH pH 7.5, 3 mM MnCl2, 3 µM Na-orthovanadate, 1 mM dithiothreitol (DTT)], kinase dilution buffer (containing 0.25 mg/mL PEG20,000, 50 mM HEPES-NaOH pH 7.5, 1 mM DTT), and ATP at 37 °C for 30 to 40 min. The final reaction mixture contained 0.5% DMSO in all samples, and the applied kinase concentrations were 1, 1, 10, 40, 20, and 50 nM for CDK1, 2, 4, 6, 7, and 9, respectively. The reaction was stopped by adding ADP-Glo reagent and the mixture was incubated further in the dark at room temperature for 40 min. As a final step, kinase detection reagent was added to each mixture and incubated at room temperature for 30 to 60 min. Luminescence was read using an EnVision® multilabel plate reader (PerkinElmer, Beaconsfield, UK), and half-maximum inhibitory concentrations (IC50) were calculated using a non-linear regression model with a variable slope, plotting log (inhibitor concentration) vs. response using the following formula: Ar%=Bottom+Top−Bottom/1+Inhibitor Concentration/IC50^HillSlope where the relative activity Ar (%) is the signal relative to the controls, IC50 is the half maximum concentration, Hillslope is the steepness of the dose-response curve, Top and Bottom are plateaus reflecting the maximum and minimum in responses on the Y-axis (GraphPad Prism version 7, San Diego, CA, USA). Ki values were calculated from the IC50 using the Cheng−Prusoff equation [32]. Extensive specificity assessment was carried out by Reaction Biology Corporation (Malvern, PA, USA) with 369 kinases using 1 µM CDDD11-8 concentration in a Kinase Hotspot radiolabel assay (for experimental details, please see (Reaction Biology https://www.reactionbiology.com/). Subsequently, Ki values were determined for kinases with greater than 90% inhibition.

ZAP70 = target: T2, ZAP70 (Homo sapiens, UniProt P43403)
T2 construct: purchased Reaction Biology Corporation (Kinase HotSpot)
Procedure: as §1

NEK4 = target: T3, NEK4 (Homo sapiens, UniProt P51957)
T3 construct: purchased Reaction Biology Corporation (Kinase HotSpot)
Procedure: as §1

MST3/STK24 = target: T4, MST3/STK24 (Homo sapiens, UniProt Q9Y6E0)
T4 construct: purchased Reaction Biology Corporation (Kinase HotSpot)
T4 sequence (Q9Y6E0 whole entry): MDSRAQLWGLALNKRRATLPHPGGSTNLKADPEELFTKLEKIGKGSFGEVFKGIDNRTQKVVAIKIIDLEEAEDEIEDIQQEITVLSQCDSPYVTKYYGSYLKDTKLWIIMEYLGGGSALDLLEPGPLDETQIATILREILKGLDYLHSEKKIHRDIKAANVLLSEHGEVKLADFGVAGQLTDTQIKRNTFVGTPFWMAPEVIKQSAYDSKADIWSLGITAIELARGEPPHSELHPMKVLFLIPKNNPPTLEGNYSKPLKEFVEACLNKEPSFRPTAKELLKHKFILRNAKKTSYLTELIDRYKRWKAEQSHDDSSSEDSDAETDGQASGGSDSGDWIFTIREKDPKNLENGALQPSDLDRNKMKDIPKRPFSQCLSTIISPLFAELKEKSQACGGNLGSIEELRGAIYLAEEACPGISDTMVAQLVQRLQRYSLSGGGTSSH
Procedure: as §1

JNK1 = target: T5, JNK1 (Homo sapiens, UniProt P45983)
T5 construct: purchased Reaction Biology Corporation (Kinase HotSpot)
Procedure: as §1

EPHB1 = target: T6, EPHB1 (Homo sapiens, UniProt P54762)
T6 construct: purchased Reaction Biology Corporation (Kinase HotSpot)
Procedure: as §1

RET = target: T7, RET (Homo sapiens, UniProt P07949)
T7 construct: purchased Reaction Biology Corporation (Kinase HotSpot)
Procedure: as §1

IR = target: T8, IR (Homo sapiens, UniProt P06213)
T8 construct: purchased Reaction Biology Corporation (Kinase HotSpot)
Procedure: as §1

MYO3b = target: T9, MYO3b (Homo sapiens, UniProt Q8WXR4)
T9 construct: purchased Reaction Biology Corporation (Kinase HotSpot)
Procedure: as §1

RON/MST1R = target: T10, RON/MST1R (Homo sapiens, UniProt Q04912)
T10 construct: purchased Reaction Biology Corporation (Kinase HotSpot)
Procedure: as §1

P38b/MAPK11 = target: T11, P38b/MAPK11 (Homo sapiens, UniProt Q15759)
T11 construct: purchased Reaction Biology Corporation (Kinase HotSpot)
T11 sequence (Q15759 whole entry): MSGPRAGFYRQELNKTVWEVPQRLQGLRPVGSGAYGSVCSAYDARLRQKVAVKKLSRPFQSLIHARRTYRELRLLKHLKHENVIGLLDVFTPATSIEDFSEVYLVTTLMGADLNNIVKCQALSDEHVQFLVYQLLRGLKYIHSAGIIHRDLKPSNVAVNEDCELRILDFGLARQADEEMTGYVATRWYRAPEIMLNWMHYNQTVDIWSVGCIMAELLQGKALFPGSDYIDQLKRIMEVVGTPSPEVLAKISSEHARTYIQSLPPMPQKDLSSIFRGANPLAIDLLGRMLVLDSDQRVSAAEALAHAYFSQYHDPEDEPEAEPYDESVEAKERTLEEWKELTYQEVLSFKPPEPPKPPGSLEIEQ
Procedure: as §1

SLK/STK2 = target: T12, SLK/STK2 (Homo sapiens, UniProt Q9H2G2)
T12 construct: purchased Reaction Biology Corporation (Kinase HotSpot)
Procedure: as §1

SRMS = target: T13, SRMS (Homo sapiens, UniProt Q9H3Y6)
T13 construct: purchased Reaction Biology Corporation (Kinase HotSpot)
T13 sequence (Q9H3Y6 whole entry): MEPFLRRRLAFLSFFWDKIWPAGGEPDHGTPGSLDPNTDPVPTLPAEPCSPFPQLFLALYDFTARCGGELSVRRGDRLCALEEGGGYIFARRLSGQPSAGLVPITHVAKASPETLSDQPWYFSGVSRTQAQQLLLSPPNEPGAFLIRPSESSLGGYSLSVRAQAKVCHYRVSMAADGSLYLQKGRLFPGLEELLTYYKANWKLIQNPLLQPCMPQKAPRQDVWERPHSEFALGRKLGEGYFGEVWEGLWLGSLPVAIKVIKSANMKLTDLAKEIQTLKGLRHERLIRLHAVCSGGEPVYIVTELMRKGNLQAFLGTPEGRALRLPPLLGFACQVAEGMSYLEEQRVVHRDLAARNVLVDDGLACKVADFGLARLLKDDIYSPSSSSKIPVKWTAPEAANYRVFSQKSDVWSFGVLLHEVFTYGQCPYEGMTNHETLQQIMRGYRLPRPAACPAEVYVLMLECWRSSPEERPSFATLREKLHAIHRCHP
Procedure: as §1

FLT4/VEGFR3 = target: T14, FLT4/VEGFR3 (Homo sapiens, UniProt P35916)
T14 construct: purchased Reaction Biology Corporation (Kinase HotSpot)
T14 sequence (P35916 25-1363): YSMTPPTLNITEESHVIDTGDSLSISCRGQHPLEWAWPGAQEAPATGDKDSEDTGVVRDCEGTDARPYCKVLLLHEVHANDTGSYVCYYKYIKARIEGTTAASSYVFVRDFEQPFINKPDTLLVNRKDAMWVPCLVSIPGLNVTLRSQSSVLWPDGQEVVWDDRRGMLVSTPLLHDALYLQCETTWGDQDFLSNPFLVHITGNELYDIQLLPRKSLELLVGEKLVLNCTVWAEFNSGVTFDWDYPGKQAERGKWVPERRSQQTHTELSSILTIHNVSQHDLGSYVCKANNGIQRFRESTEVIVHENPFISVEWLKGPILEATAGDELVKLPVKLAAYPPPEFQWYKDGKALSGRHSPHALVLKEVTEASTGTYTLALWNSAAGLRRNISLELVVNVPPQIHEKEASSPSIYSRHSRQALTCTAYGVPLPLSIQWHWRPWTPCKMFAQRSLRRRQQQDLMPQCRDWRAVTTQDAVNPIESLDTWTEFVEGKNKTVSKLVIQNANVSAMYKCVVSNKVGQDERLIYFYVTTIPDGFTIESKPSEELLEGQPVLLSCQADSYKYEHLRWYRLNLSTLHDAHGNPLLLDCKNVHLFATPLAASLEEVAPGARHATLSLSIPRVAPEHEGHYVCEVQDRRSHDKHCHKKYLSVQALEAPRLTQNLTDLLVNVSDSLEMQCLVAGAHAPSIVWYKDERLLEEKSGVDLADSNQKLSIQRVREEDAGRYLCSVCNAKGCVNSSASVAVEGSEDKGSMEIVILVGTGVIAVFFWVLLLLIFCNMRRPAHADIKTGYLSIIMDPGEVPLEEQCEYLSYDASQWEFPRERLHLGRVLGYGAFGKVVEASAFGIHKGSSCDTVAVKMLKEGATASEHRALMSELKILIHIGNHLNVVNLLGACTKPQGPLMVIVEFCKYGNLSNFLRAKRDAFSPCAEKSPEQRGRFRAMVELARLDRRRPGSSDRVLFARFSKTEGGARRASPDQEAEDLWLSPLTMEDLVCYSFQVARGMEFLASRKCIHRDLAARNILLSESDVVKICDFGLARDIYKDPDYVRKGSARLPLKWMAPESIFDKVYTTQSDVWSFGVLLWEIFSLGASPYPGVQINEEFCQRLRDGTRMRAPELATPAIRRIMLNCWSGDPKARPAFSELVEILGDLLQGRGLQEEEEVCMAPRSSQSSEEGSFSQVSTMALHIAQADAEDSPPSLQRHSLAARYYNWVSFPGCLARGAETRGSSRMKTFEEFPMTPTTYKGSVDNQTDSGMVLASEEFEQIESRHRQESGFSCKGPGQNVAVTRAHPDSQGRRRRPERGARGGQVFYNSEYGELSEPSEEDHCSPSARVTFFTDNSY
Procedure: as §1

MSK1/RPS6KA5 = target: T15, MSK1/RPS6KA5 (Homo sapiens, UniProt O75582)
T15 construct: purchased Reaction Biology Corporation (Kinase HotSpot)
Procedure: as §1

RIPK2 = target: T16, RIPK2 (Homo sapiens, UniProt O43353)
T16 construct: purchased Reaction Biology Corporation (Kinase HotSpot)
Procedure: as §1

LKB1 = target: T17, LKB1 (Homo sapiens, UniProt Q15831)
T17 construct: purchased Reaction Biology Corporation (Kinase HotSpot)
Procedure: as §1

CDK1/cyclin E = target: T18, CDK1/cyclin E (Homo sapiens, UniProt P06493)
T18 construct: purchased Reaction Biology Corporation (Kinase HotSpot)
T18 sequence (P06493 whole entry): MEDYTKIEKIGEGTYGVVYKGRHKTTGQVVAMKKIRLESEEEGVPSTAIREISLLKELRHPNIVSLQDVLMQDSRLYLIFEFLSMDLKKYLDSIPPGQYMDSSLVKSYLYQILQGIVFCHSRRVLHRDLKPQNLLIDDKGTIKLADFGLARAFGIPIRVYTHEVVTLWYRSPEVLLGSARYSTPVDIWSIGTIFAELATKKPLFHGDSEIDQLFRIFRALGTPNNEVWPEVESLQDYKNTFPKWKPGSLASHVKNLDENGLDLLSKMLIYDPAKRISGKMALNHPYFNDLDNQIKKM
T18 sequence (P24864 whole entry partner): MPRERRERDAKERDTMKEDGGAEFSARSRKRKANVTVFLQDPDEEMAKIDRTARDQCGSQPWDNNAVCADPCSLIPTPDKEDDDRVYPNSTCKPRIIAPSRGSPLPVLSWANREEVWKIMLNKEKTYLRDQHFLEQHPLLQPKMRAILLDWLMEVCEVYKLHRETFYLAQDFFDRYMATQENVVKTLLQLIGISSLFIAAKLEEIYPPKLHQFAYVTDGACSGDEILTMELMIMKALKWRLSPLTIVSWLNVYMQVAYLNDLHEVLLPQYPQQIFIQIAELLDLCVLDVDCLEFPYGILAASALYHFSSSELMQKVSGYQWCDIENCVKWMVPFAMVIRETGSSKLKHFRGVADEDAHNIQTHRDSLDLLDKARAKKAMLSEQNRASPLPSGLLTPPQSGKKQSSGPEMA
Procedure: as §1

TIE2/TEK = target: T19, TIE2/TEK (Homo sapiens, UniProt Q02763)
T19 construct: purchased Reaction Biology Corporation (Kinase HotSpot)
T19 sequence (Q02763 23-1124): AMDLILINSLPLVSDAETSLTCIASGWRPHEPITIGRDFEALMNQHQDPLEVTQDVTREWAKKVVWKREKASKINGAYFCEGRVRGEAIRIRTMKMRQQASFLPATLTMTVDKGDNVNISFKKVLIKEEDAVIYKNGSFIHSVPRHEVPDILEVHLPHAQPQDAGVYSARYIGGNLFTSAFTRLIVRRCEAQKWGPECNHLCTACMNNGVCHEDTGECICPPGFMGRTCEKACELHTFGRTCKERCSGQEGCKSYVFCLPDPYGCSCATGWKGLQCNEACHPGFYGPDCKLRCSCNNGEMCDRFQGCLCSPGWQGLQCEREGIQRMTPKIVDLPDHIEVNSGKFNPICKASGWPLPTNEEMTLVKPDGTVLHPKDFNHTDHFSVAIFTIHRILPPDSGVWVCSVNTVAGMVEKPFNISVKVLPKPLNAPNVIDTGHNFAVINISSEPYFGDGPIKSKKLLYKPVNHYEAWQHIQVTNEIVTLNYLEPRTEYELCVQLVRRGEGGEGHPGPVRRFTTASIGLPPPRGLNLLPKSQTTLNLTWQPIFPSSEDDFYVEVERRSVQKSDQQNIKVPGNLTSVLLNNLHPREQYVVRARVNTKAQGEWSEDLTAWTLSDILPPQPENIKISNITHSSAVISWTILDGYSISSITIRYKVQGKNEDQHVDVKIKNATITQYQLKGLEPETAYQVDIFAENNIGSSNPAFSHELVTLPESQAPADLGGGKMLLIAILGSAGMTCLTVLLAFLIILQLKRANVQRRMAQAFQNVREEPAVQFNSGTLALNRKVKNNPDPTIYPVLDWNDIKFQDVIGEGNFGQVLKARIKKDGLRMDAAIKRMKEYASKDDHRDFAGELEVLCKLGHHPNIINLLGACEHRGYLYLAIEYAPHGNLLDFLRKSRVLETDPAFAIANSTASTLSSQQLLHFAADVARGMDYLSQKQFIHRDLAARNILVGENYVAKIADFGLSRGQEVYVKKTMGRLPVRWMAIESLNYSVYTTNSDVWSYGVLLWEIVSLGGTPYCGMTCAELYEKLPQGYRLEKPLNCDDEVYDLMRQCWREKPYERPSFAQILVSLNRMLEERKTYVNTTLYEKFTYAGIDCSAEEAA
Procedure: as §1

NEK5 = target: T20, NEK5 (Homo sapiens, UniProt Q6P3R8)
T20 construct: purchased Reaction Biology Corporation (Kinase HotSpot)
Procedure: as §1

ALK1/ACVRL1 = target: T21, ALK1/ACVRL1 (Homo sapiens, UniProt P37023)
T21 construct: purchased Reaction Biology Corporation (Kinase HotSpot)
Procedure: as §1

GRK3 = target: T22, GRK3 (Homo sapiens, UniProt P35626)
T22 construct: purchased Reaction Biology Corporation (Kinase HotSpot)
Procedure: as §1

DCAMKL1 = target: T23, DCAMKL1 (Homo sapiens, UniProt O15075)
T23 construct: purchased Reaction Biology Corporation (Kinase HotSpot)
Procedure: as §1

DYRK1/DYRK1A = target: T24, DYRK1/DYRK1A (Homo sapiens, UniProt Q13627)
T24 construct: purchased Reaction Biology Corporation (Kinase HotSpot)
Procedure: as §1

ALK2/ACVR1 = target: T25, ALK2/ACVR1 (Homo sapiens, UniProt Q04771)
T25 construct: purchased Reaction Biology Corporation (Kinase HotSpot)
T25 sequence (Q04771 21-509): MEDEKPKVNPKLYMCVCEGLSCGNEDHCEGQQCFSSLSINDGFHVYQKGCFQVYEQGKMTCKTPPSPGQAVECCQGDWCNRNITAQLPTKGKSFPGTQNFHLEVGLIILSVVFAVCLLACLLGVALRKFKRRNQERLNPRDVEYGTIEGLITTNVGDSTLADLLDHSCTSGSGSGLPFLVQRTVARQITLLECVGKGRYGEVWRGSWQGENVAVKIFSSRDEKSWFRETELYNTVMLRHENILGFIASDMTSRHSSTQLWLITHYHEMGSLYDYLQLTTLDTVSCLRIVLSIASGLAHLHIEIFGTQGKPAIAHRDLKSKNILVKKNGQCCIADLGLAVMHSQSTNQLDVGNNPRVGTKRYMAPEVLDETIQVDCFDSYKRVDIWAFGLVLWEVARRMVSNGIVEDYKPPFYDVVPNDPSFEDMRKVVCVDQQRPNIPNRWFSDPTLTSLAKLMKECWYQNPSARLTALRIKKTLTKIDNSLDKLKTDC
Procedure: as §1

MLK3/MAP3K11 = target: T26, MLK3/MAP3K11 (Homo sapiens, UniProt Q16584)
T26 construct: purchased Reaction Biology Corporation (Kinase HotSpot)
Procedure: as §1

MAPKAPK2 = target: T27, MAPKAPK2 (Homo sapiens, UniProt P49137)
T27 construct: purchased Reaction Biology Corporation (Kinase HotSpot)
Procedure: as §1

NEK1 = target: T28, NEK1 (Homo sapiens, UniProt Q96PY6)
T28 construct: purchased Reaction Biology Corporation (Kinase HotSpot)
Procedure: as §1

PKAcg = target: T29, PKAcg (Homo sapiens, UniProt P22612)
T29 construct: purchased Reaction Biology Corporation (Kinase HotSpot)
Procedure: as §1

PKCg = target: T30, PKCg (Homo sapiens, UniProt P05129)
T30 construct: purchased Reaction Biology Corporation (Kinase HotSpot)
Procedure: as §1

Structure (SMILES): Cc1cnc(N[C@H]2CC[C@H](N)CC2)nc1-c1cnc2ccc(-c3ccccc3)cn12 [CDDD11-8]
- remaining activity at 1 µM (ITK): 87.5%
- remaining activity at 1 µM (ZAP70): 101%
- remaining activity at 1 µM (NEK4): 78.8%
- remaining activity at 1 µM (MST3/STK24): 103%
- remaining activity at 1 µM (JNK1): 105%
- remaining activity at 1 µM (EPHB1): 88.1%
- remaining activity at 1 µM (RET): 84.4%
- remaining activity at 1 µM (IR): 101%
- remaining activity at 1 µM (MYO3b): 58.4%
- remaining activity at 1 µM (RON/MST1R): 97.9%
- remaining activity at 1 µM (P38b/MAPK11): 98.4%
- remaining activity at 1 µM (SLK/STK2): 89.8%
- remaining activity at 1 µM (SRMS): 101%
- remaining activity at 1 µM (FLT4/VEGFR3): 23.3%
- remaining activity at 1 µM (MSK1/RPS6KA5): 61.6%
- remaining activity at 1 µM (RIPK2): 78.1%
- remaining activity at 1 µM (LKB1): 102%
- remaining activity at 1 µM (CDK1/cyclin E): 87.5%
- remaining activity at 1 µM (TIE2/TEK): 61.2%
- remaining activity at 1 µM (NEK5): 28.7%
- remaining activity at 1 µM (ALK1/ACVRL1): 96.9%
- remaining activity at 1 µM (GRK3): 91.9%
- remaining activity at 1 µM (DCAMKL1): 113%
- remaining activity at 1 µM (DYRK1/DYRK1A): 63.9%
- remaining activity at 1 µM (ALK2/ACVR1): 121%
- remaining activity at 1 µM (MLK3/MAP3K11): 45.1%
- remaining activity at 1 µM (MAPKAPK2): 106%
- remaining activity at 1 µM (NEK1): 40.8%
- remaining activity at 1 µM (PKAcg): 86.7%
- remaining activity at 1 µM (PKCg): 87.9%
